{"source": "patent US4495358A", "about": "“Antibiotic pyrrolomycin E” (Meiji Seika Kaisha, Ltd., priority 1981, dated 1985)", "key": {"[1]": {"test_system": "Staphylococcus epidermidis ATCC 14990", "experiment": "Minimum inhibitory concentration, agar dilution method", "type": "cell-based", "settings": "ATCC14990", "source_text": "(§1) The physical and chemical properties and the minimum inhibitory concentration against various microorganisms as measured by agar dilution method of pyrrolomycin E as obtained by the above-described method are as follows: […]"}, "[2]": {"test_system": "Escherichia coli W 3630 RGN823", "experiment": "Minimum inhibitory concentration, agar dilution method", "type": "cell-based", "settings": "W3630RGN823, read-out: Minimum Inhibitory Concentration", "source_text": "as §1"}, "[3]": {"test_system": "Staphylococcus aureus FDA209PJC-1", "experiment": "Minimum inhibitory concentration, agar dilution method", "type": "cell-based", "settings": "FDA209PJC1", "source_text": "as §1"}, "[4]": {"test_system": "Bacillus subtilis ATCC 6633", "experiment": "Minimum inhibitory concentration, agar dilution method", "type": "cell-based", "settings": "ATCC6633", "source_text": "as §1"}, "[5]": {"test_system": "Pseudomonas aeruginosa IAM 1007", "experiment": "Minimum inhibitory concentration, agar dilution method", "type": "cell-based", "settings": "IAM1007", "source_text": "as §1"}, "[6]": {"test_system": "Serratia marcescens No. 1", "experiment": "Minimum inhibitory concentration, agar dilution method", "type": "cell-based", "source_text": "as §1"}, "[7]": {"test_system": "Proteus vulgaris OX-19", "experiment": "Minimum inhibitory concentration, agar dilution method", "type": "cell-based", "settings": "OX19", "source_text": "as §1"}, "[8]": {"test_system": "Staphylococcus aureus Smith", "experiment": "Minimum inhibitory concentration, agar dilution method", "type": "cell-based", "source_text": "as §1"}, "[9]": {"test_system": "Salmonella typhi 0-901-W", "experiment": "Minimum inhibitory concentration, agar dilution method", "type": "cell-based", "settings": "Salmonella enterica, read-out: Minimum Inhibitory Concentration", "source_text": "as §1"}, "[10]": {"test_system": "Escherichia coli NIHJ JC-2", "experiment": "Minimum inhibitory concentration, agar dilution method", "type": "cell-based", "settings": "NIHJJC2", "source_text": "as §1"}, "[11]": {"test_system": "Klebsiella pneumoniae PCI-602", "experiment": "Minimum inhibitory concentration, agar dilution method", "type": "cell-based", "settings": "PCI602", "source_text": "as §1"}, "[12]": {"experiment": "Solubility", "type": "physicochemical"}, "[13]": {"experiment": "Nature of the substance (acidity)", "type": "physicochemical"}, "[14]": {"test_system": "mice", "settings": "mouse, in vivo, ip, 10 mg/kg"}}, "data": [{"smiles": "O=[N+]([O-])c1cc(Cl)[nH]c1-c1cc(Cl)cc(Cl)c1O", "note": "[pyrrolomycin E]", "values": [{"measurement": "MIC", "setting": "[1]", "value": 1.56, "unit": "µg/mL"}, {"measurement": "MIC", "setting": "[2]", "value": 12.5, "unit": "µg/mL"}, {"measurement": "MIC", "setting": "[3]", "value": 1.56, "unit": "µg/mL"}, {"measurement": "MIC", "setting": "[4]", "value": 0.025, "unit": "µg/mL"}, {"measurement": "MIC", "setting": "[5]", "value": "> 100", "unit": "µg/mL"}, {"measurement": "MIC", "setting": "[6]", "value": "> 100", "unit": "µg/mL"}, {"measurement": "MIC", "setting": "[7]", "value": 6.25, "unit": "µg/mL"}, {"measurement": "MIC", "setting": "[8]", "value": 1.56, "unit": "µg/mL"}, {"measurement": "MIC", "setting": "[9]", "value": "> 100", "unit": "µg/mL"}, {"measurement": "MIC", "setting": "[10]", "value": "> 100", "unit": "µg/mL"}, {"measurement": "MIC", "setting": "[11]", "value": "> 100", "unit": "µg/mL"}, {"measurement": "Solubility", "setting": "[12]; acetone", "value": "Soluble"}, {"measurement": "Solubility", "setting": "[12]; ethyl acetate", "value": "Soluble"}, {"measurement": "Solubility", "setting": "[12]; methanol", "value": "Soluble"}, {"measurement": "Solubility", "setting": "[12]; n-hexane", "value": "sparingly soluble"}, {"measurement": "Solubility", "setting": "[12]; water", "value": "sparingly soluble"}, {"measurement": "acidity of the substance", "setting": "[13]", "value": "Weak acidic substance"}, {"measurement": "acute toxicity (survival)", "setting": "[14]", "value": "All mice survived"}]}]}
